Experimental data as given in patent US20140274766A1, “METHODS OF USING F-SPONDIN AS A BIOMARKER FOR CARTILAGE DEGENERATIVE CONDITIONS AND BONE DISEASES” (priority 2009, published 2014).

What was measured:
[1] = system: chick sternal chondrocytes; assay: Retinoic acid induced maturation of chick sternal chondrocytes (RT-PCR, AP staining); assay type: cell-based
Procedure: FIGS. 21A and 21B. […] Upper sternal chondrocytes were exposed to 0, 10, 35 or 100 nM retinoic acid (RA) for 5 days in culture. […] (B) Relative gene expression levels of chondrocyte maturation markers were determined by semi-quantitative RT-PCR of RNA harvested from parallel cultures. Values represent mean±std deviation for triplicate samples.
Chondrocytes were isolated from the cephalic and caudal portion of day 14 chick embryo sterna as described by (Teixeira C C, Shapiro I M, Hatori M, Rajpurohit R, Koch C. Retinoic acid modulation of glutathione and cysteine metabolism in chondrocytes. Biochem J 1996; 314 (Pt 1):21-6). After 5 days of primary culture, chondrocytes were separated from the attached fibroblasts, harvested by centrifugation, counted, and plated in tissue culture dishes in complete medium supplemented with hyaluronidase (4-units/ml) to promote attachment. After becoming confluent, and to induce maturation, cells were treated daily with all-trans retinoic acid (35-100 nM) (Sigma) in the presence of ascorbate-2-phosphate (100 μM) for 1 week. Control cultures were treated with an equal volume of vehicle. Cultures were provided with β-glycerophosphate (5 mM) to serve as phosphate donor. For transfections, chondrocytes were transiently transfected with a plasmid encoding full length F-spondin cDNA under control of a CMV promoter, 1 day after plating in monolayer culture, using the FuGene 6 Transfection Reagent (Roche, Nutley, N.J.) according to the manufacturer's specifications. Parallel transfections with a CMV-GFP plasmid was used as a null control and to estimate transfection efficiency.
To investigate the role of F-spondin in chondrocyte maturation, we used an in vitro model in which chick sternal chondrocytes mimic growth plate chondrocytes and undergo terminal differentiation in response to RA treatment. […] Chick chondrocytes were stimulated with increasing doses of RA (10-100 nm) and harvested for gene expression analysis by qPCR after 5 days. The relative gene expression of type X collagen (ColX), alkaline phosphatae (AP), MMP-13, and F-spondin were assessed with increasing maturation on RA stimulation (FIG. 14).
Chondrocytes were isolated from the cephalic (upper) portion of 14 day old chick embryo sterna as previously described (Teixeira, C. C., et al. (1995) Calcif Tissue Int 56:252-56).^15. After 5 days of primary culture, floating chondrocytes were separated from the attached fibroblasts, and plated in tissue culture dishes in DMEM supplemented with 10% FBS and hyaluronidase (4-units/ml) to promote attachment. At confluence, differentiation was induced by daily treatment with all-trans retinoic acid (RA) from 0.1% v/v aliquots of a 1000-fold stock solution in 95% ethanol. Final concentrations ranged from 10 to 100 nM. To examine the effect of F-spondin overexpression, cultures were transfected at 70-80% confluence, with either full length (pFSI), truncated (pFS6) F-spondin cDNAs or control vector pcDNA3 (Invitrogen) using GenePorter transfection reagent (Genlantis, San Diego, Calif.). Differentiation was induced by daily treatments with 100 nM RA, which were initiated the following day. For F-spondin inhibition studies, a TSR domain specific F-spondin antibody (R1), or a spondin domain specific F-spondin antibody (R4) (R1 and R4 antibodies were provided by Dr. Avihu Klar (Hebrew University, Jerusalem, Israel), were added to chondrocyte cultures (1:100 dilution), every other day 1 h prior to RA treatment.
Different regions of the chick growth plate were visually identified and dissected into separate tubes, frozen in liquid nitrogen and crushed. Total RNA was extracted using Trizol® reagent (Life Technologies, Gaitherburg, Md.) per manufacturer's instructions.

[2] = system: F-spondin expression in human chondrocytes; assay: Induction of F-spondin expression in human chondrocytes, TaqMan quantitative PCR; assay type: cell-based
Source text: In another particular embodiment, the candidate compound is further tested for an effect in an animal model for arthritis, or a cartilage degenerative condition, wherein said arthritis or cartilage degenerative condition is characterized by elevated levels of F-spondin. Examples of animal models for studying arthritis and cartilage degenerative conditions may be found in the following publications, which are incorporated in their entireties: Ameye, L. G. et al., Current Opinion in Rheumatology (2006), 18(5):537-547; Warskyj, M. and Hukins, D W, Br. J. of Rheumatology (1990), 29:219-221; Bolter, S. M. et al., Biorheology, (2006), 43(3-4):379-388; Carlson, C. S. et al., J. Bone Miner. Res. (1996), September; 11(9):1209-1217; Moreau, M. et al., J. Rheumatology (2006), June; 33(6):1176-1183; Laurent, D. et al. Skeletal Radiol., (2006), August; 35(8):555-564; Hotta, H. et al. J. Orthop. Sci. (2005), November; 10(6):595-607; Mastbergen, S. C. et al. Rheumatology (Oxford), (2006), April; 45(4):405-413; and Mastbergen, S. C. et al., Osteoarthritis Cartilage (2006), January; 14(1):39-46. Chambers M. G. et al., Arthritis and Rheumatism (2001) June 44(6):1455-1465. In another particular embodiment, the potential inducers of F-spondin in cartilage/chondrocytes for use in a therapeutic setting may be selected from the group consisting of prostaglandin E2 (PGE2), cAMP inducers, Bone morphogenic protein 2 (BMP-2), Insulin-like growth factor (IGF), Fibroblast growth factor basic (FGFbasic) and Transforming Growth factor b1 (TGF-b1). […] Accordingly, it is envisioned that these agents may be used for treating conditions as described herein.

[3] = system: cartilage explants; assay: Effect of PGE2 on cartilage explants; assay type: cell-based, human; settings: PGE2 1-10 uM
Procedure: (§1) F-spondin induced both catabolic and anabolic gene/gene products in chondrocytes including BMP-2, type II collagen, TGF-β1, COX-2, mPGES and PGE2. To begin to address the question of whether selected F-spondin effects in cartilage are mediated by prostaglandin production, we have begun studies to characterize the effect of PGE2 in cartilage. Addition of PGE2 (1-10 uM) to cartilage explants inhibited type II collagen, aggrecan expression, ^35SO4 incorporation, as well as increased type II collagen degradation as assessed by C12C ELISA (IBEX). […] Relative to normals, NURR1 was overexpressed in OA cartilage (2-5 fold) and synovium (2 fold), confirmed by QPCR. Incubation of OA chondrocytes with PGE2 (1-10 uM) induced NURR1 expression (20-50 fold), as analyzed by QPCR. Since NURR1 binds to the NURR1 cis-acting sequence (NBRE) in the promoter region of a variety of genes, we examined the effect of adenoviral-mediated over-expression of NURR1 in chondrocytes.

[4] = system: OA chondrocytes; assay: Effect of PGE2 on chondrocytes (secretion, NURR1 QPCR); assay type: cell-based, human
Procedure: as §1

[5] = system: bone marrow-derived MSCs; assay: Chondrogenesis of bone marrow-derived MSC aggregate cultures; assay type: cell-based; settings: for staining for proteoglycan, type II and type X collagen: 21 d aggregates, adenoviral expression 50 ng/ml; for chondrogenesis in aggregate cultures: adult bone marrow-derived MSCs
Procedure: FIG. 6: Chondrogenesis of postnatal MSCs following exposure to TGF-β and BMP-2. Bone marrow-derived MSCs were modified to express 50 ng/ml BMP-2 or TGF-β1 using first generation recombinant adenoviral vectors and seeded into high density aggregates. After 21 d, aggregates were fixed, sectioned and stained for the presence of chondrogenic markers using toluidine blue (proteoglycan) and immunostaining for type II and X collagen. This pattern was consistent over three experiments.
Upon histological examination important differences between TGF-β1 and BMP-2-treated cultures were noted (FIG. 6). […] We propose to extend these studies further, in order to more fully characterize extracellular matrix protein expression during chondrocyte maturation and the relationship to F-spondin, by comparing the effects of various chondroinductive factors.

Molecule: CC1=C(/C=C/C(C)=C/C=C/C(C)=C/C(=O)O)C(C)(C)CCC1 [RA, all-trans retinoic acid]
- F-spondin expression relative to controls ([1]; 100 nM RA, 5 days, p=0.04): approximately 3 fold
- MMP-13 expression ([1]; RA 0-100 nM, 5 days, RT-PCR): increased
- VEGF expression ([1]; RA 0-100 nM, 5 days, RT-PCR): increased
- type I collagen expression ([1]; RA 0-100 nM, 5 days, RT-PCR): pronounced upregulation
- type II collagen expression ([1]; RA 0-100 nM, 5 days, RT-PCR): marked downregulation
- type X collagen expression ([1]; RA 0-100 nM, 5 days, RT-PCR): did not increase
- AP activity (red staining) ([1]; RA 0-100 nm, 5 days): dose dependant increase
- increase in F-spondin gene expression ([1]; RA 10-100 nm, 5 days, vs non-stimulated controls): 2- to 4 fold
- upregulation of F-spondin following RA treatment ([1]; chick sternal model, p<0.05): 3.5 fold

Molecule: FGF basic: Fibroblast growth factor basic
- F-spondin expression [2]: induced F-spondin expression

Molecule: CCCCC[C@H](O)/C=C/[C@H]1[C@H](O)CC(=O)[C@@H]1C/C=C\CCCC(=O)O [PGE2, prostaglandin E2]
- F-spondin expression [2]: induced F-spondin expression
- 35SO4 incorporation [3]: inhibited
- aggrecan expression [3]: inhibited
- type II collagen degradation (C12C ELISA) [3]: increased
- type II collagen expression [3]: inhibited
- induction of NURR1 expression ([4]; OA chondrocytes, PGE2 1-10 uM, QPCR): 20-50 fold
- MMP-1 secretion ([4]; chondrocytes): decreased
- secretion of IL-6 ([4]; chondrocytes): increased
- secretion of IL-8 ([4]; chondrocytes): increased
- secretion of MMP-13 ([4]; chondrocytes): increased

Molecule: TGF-β1: Transforming growth factor-beta 1
- F-spondin expression [2]: induced F-spondin expression
- staining for proteoglycan, type II and type X collagen [5]: generally lower
- chondrogenesis in aggregate cultures [5]: undergo chondrogenesis

B1: BMP-2: protein that induces the formation of bone and cartilage (protein, listed as Homo sapiens)
chain: MVAGTRCLLALLLPQVLLGGAAGLVPELGRRKFAAASSGRPSSQPSDEVLSEFELRLLSMFGLKQRPTPSRDAVVPPYMLDLYRRHSGQPGSPAPDHRLERAASRANTVRSFHHEESLEELPETSGKTTRRFFFNLSSIPTEEFITSAELQVFREQMQDALGNNSSFHHRINIYEIIKPATANSKFPVTRLLDTRLVNQNASRWESFDVTPAVMRWTAQGHANHGFVVEVAHLEEKQGVSKRHVRISRSLHQDEHSWSQIRPLLVTFGHDGKGHPLHKREKRQAKHKQRKRLKSSCKRHPLYVDFSDVGWNDWIVAPPGYHAFYCHGECPFPLADHLNSTNHAIVQTLVNSVNSKIPKACCVPTELSAISMLYLDENEKVVLKNYQDMVVEGCGCR
- F-spondin expression [2]: induced F-spondin expression
- staining for proteoglycan, type II and type X collagen [5]: more intense staining
- chondrogenesis in aggregate cultures [5]: undergo chondrogenesis
